Read-outs that look alike come from different tables or passages of the source.
Columns and labels:
[1] = molecular target: FGFR1 (h) (Homo sapiens, UniProt P11362); test: FGFR1 (enzymatic assay), TR-FRET; assay type: biochemical; details: average values if tested multiple times, read-out: FGFR 1 pIC50 (converted)
[2] = molecular target: FGFR2 (h) (Homo sapiens, UniProt P21802); test: FGFR2 (enzymatic assay), TR-FRET; assay type: biochemical; details: average values if tested multiple times
Description: In a final reaction volume of 30 μL, FGFR2 (h) (150 ng/ml) was incubated with 50 mM HEPES pH 7.5, 6 mM MnCl2, 1 mM DTT, 0.1 mM Na3VO4, 0.01% Triton-X-100, 500 nM Btn-Flt3 and 0.4 μM ATP in the presence of compound (1% DMSO final).

[3] = molecular target: FGFR3 (h) (Homo sapiens, UniProt P22607); test: FGFR3 (enzymatic assay), TR-FRET; assay type: biochemical; details: average values if tested multiple times, read-out: FGFR 3 pIC50 (converted)
Excerpt: Time-Resolved Fluorescence Resonance Energy Transfer (TR-FRET) signal (ex340 nm.

[4] = molecular target: FGFR4 (h) (Homo sapiens, UniProt P22455); test: FGFR4 (enzymatic assay), TR-FRET; assay type: biochemical; details: FGFR 4 pIC50, enzymatic assay; average values if tested multiple times
[5] = molecular target: KDR (h) (Homo sapiens, UniProt P35968); test: KDR (VEGFR2) (enzymatic assay), TR-FRET; assay type: biochemical; details: average values if tested multiple times, read-out: VEGFR 2 (KDR) pIC50 (converted)
Description: KDR (VEGFR2) (Enzymatic Assay)
In a final reaction volume of 30 μL, KDR (h) (150 ng/ml) was incubated with 50 mM HEPES pH 7.5, 6 mM MnCl2, 1 mM DTT, 0.1 mM Na3VO4, 0.01% Triton-X-100, 500 nM Btn-Flt3 and 3 μM ATP in the presence of compound (1% DMSO final). After incubation for 120 minutes at room temperature the reaction was stopped with 2.27 nM EU-anti P-Tyr, 7 mM EDTA, 31.25 nM SA-XL-665 and 0.02% BSA which was present for 60 minutes at room temperature. Time-Resolved Fluorescence Resonance Energy Transfer (TR-FRET) signal (ex340 nm. Em 620 nm, em 655 nm) was measured afterwards and results are expressed in RFU (Relative Fluorescence Units).

[6] = molecular target: T1, Ba/F3-FGFR1-transfected cells (Homo sapiens, UniProt P11362); test: Ba/F3-FGFR1 (minus IL3) cellular proliferation assay, Alamar Blue; assay type: cell-based
T1 construct: BAF3-FGFR1 (MIN IL3) pIC50; other: minus IL3
Description: (§1) Ba/F3-FGFR1 (Minus IL3 or Plus IL3) (Cellular Proliferation Assay)
(§2) In a 384 well plate, 100 nl of compound dilution in DMSO was sprayed before adding 50 μl cell culture medium (phenol red free RPMI-1640, 10% FBS, 2 mM L-Glutamine and 50 μg/ml Gentamycin) containing 20000 cells per well of Ba/F3-FGFR1-transfected cells. Cells were put in an incubator at 37° C. and 5% CO2. After 24 hours, 10 μl of Alamar Blue solution (0.5 mM K3Fe(CN)6, 0.5 mM K4Fe(CN)6, 0.15 mM Resazurin and 100 mM Phosphate Buffer) was added to the wells, incubated for 4 hours at 37° C. and 5% CO2 before RFU's (Relative Fluorescence Units) (ex. 540 nm., em. 590 nm.) were measured in a fluororescence plate reader.

[7] = tested on: Ba/F3-FGFR1-transfected cells; test: Ba/F3-FGFR1 (plus IL3) cellular proliferation assay, counterscreen with 10 ng/ml murine IL3; assay type: cell-based; details: read-out: BAF3-FGFR1 (PLUS IL3) pIC50 (converted)
Description: as §1, §2
(§3) As a counterscreen the same experiment was performed in the presence of 10 ng/ml murine IL3.

[8] = molecular target: T2, Ba/F3-FGFR3-transfected cells (Homo sapiens, UniProt P22607); test: Ba/F3-FGFR3 (minus IL3) cellular proliferation assay, Alamar Blue; assay type: cell-based
T2 construct: BAF3-FGFR3 (MIN IL3) pIC50; other: minus IL3
Description: (§4) Ba/F3-FGFR3 (Minus IL3 or Plus IL3) (Cellular Proliferation Assay)
as §2, with “Ba/F3-FGFR3-transfected” for “Ba/F3-FGFR1-transfected”, “reader. […]” for “reader.”

[9] = tested on: Ba/F3-FGFR3-transfected cells; test: Ba/F3-FGFR3 (plus IL3) cellular proliferation assay, counterscreen with 10 ng/ml murine IL3; assay type: cell-based; details: read-out: BAF3-FGFR3 (PLUS IL3) pIC50 (converted)
Description: as §4
as §2, with “Ba/F3-FGFR3-transfected” for “Ba/F3-FGFR1-transfected”
as §3

[10] = molecular target: T3, Ba/F3-KDR-transfected cells (Homo sapiens, UniProt P35968); test: Ba/F3-KDR (minus IL3) cellular proliferation assay, Alamar Blue; assay type: cell-based
T3 construct: BAF3-KDR (MIN IL3) pIC50; other: minus IL3
Description: Ba/F3-KDR (Minus IL3 or Plus IL3) (Cellular Proliferation Assay)
as §2, with “n1” for “nl”, “Ba/F3-KDR-transfected” for “Ba/F3-FGFR1-transfected”, “reader. […]” for “reader.”

[11] = molecular target: Ba/F3-FGFR4-transfected cells (Homo sapiens, UniProt P22455); test: Ba/F3-FGFR4 cellular proliferation assay, Alamar Blue; assay type: cell-based
Description: Ba/F3-FGFR4 (Cellular Proliferation Assay)
as §2, with “n1” for “nl”, “Ba/F3-FGFR4-transfected” for “Ba/F3-FGFR1-transfected”

[12] = enzymatic assay, read-out: FGFR 2 pIC50 (converted)
[13] = plus IL3 (10 ng/ml murine IL3, counterscreen)

T2 sequence (P22607 whole entry, change not shown): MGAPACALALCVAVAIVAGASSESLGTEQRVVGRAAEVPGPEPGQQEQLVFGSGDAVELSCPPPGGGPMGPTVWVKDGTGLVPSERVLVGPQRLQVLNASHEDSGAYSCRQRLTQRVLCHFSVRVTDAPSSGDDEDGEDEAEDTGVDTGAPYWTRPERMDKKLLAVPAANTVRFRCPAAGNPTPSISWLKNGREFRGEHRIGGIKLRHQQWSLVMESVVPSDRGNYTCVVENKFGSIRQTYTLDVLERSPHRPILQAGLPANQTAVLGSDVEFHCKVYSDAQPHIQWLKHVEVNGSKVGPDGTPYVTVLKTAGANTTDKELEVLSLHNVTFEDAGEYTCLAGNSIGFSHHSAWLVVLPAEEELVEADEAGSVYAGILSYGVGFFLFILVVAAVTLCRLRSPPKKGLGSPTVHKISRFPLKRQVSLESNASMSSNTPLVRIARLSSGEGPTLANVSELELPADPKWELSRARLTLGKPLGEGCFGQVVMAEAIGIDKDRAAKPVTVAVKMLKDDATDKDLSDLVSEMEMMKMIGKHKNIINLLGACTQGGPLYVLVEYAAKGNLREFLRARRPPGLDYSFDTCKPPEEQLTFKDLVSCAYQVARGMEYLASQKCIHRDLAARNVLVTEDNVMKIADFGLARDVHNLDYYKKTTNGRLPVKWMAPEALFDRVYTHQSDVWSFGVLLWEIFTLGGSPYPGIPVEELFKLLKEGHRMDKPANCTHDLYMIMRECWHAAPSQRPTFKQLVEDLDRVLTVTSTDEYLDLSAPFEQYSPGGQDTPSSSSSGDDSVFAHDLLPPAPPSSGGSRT
Sequence of FGFR3 (h) (P22607 23-806): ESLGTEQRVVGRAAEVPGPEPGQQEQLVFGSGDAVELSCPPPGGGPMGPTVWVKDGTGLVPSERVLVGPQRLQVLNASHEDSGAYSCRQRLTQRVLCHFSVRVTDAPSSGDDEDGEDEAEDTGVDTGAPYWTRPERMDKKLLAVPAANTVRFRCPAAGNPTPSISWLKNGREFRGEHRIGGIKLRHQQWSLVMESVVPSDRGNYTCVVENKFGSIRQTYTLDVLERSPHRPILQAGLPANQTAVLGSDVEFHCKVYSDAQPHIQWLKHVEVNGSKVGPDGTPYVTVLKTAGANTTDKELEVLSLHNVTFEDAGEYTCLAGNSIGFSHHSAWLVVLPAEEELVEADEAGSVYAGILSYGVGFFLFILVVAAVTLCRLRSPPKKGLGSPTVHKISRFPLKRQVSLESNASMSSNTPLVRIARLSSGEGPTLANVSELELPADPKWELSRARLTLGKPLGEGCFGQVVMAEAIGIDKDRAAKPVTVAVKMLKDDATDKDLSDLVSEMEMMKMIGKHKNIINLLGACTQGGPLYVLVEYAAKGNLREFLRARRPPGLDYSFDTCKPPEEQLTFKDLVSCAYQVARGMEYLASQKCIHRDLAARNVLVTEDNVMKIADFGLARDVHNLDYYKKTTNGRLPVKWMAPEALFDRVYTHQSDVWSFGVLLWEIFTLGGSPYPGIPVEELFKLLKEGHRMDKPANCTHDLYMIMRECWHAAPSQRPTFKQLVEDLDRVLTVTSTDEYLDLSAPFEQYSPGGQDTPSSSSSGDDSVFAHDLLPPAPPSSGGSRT
Sequence of KDR (h) (P35968 20-1356): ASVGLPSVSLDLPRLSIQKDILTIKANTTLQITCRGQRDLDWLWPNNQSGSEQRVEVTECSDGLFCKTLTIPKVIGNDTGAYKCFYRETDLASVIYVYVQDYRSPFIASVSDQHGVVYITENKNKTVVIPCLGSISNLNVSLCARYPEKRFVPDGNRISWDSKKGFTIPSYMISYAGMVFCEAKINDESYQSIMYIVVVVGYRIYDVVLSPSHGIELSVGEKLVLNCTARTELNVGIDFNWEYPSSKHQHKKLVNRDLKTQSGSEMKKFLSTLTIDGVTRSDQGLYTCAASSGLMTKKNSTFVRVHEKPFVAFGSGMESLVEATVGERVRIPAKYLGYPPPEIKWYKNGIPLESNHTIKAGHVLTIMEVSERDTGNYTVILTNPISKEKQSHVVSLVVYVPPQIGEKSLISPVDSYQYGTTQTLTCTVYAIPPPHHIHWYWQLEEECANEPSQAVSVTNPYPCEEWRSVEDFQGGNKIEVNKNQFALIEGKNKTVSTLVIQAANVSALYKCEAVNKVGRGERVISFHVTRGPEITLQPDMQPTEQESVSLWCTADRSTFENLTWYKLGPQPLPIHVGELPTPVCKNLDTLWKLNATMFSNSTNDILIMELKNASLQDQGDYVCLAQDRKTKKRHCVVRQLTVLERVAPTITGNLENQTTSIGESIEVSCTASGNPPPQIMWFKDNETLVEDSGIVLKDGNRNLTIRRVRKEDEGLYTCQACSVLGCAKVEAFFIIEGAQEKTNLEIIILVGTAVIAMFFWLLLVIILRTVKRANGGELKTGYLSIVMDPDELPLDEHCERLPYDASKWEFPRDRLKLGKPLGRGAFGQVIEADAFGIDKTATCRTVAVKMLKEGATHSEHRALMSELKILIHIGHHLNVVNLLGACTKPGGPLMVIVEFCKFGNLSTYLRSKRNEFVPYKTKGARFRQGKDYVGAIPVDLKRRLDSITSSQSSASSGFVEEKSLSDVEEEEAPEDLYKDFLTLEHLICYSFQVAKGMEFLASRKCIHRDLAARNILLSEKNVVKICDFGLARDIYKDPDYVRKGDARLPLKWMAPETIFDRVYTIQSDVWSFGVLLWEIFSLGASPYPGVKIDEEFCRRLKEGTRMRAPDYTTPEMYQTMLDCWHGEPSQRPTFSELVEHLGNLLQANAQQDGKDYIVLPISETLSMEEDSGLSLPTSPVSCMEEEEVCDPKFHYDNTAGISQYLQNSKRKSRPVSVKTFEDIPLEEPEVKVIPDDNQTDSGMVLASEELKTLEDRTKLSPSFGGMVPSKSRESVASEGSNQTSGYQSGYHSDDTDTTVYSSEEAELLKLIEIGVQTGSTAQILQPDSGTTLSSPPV
T1 sequence (P11362 whole entry, change not shown): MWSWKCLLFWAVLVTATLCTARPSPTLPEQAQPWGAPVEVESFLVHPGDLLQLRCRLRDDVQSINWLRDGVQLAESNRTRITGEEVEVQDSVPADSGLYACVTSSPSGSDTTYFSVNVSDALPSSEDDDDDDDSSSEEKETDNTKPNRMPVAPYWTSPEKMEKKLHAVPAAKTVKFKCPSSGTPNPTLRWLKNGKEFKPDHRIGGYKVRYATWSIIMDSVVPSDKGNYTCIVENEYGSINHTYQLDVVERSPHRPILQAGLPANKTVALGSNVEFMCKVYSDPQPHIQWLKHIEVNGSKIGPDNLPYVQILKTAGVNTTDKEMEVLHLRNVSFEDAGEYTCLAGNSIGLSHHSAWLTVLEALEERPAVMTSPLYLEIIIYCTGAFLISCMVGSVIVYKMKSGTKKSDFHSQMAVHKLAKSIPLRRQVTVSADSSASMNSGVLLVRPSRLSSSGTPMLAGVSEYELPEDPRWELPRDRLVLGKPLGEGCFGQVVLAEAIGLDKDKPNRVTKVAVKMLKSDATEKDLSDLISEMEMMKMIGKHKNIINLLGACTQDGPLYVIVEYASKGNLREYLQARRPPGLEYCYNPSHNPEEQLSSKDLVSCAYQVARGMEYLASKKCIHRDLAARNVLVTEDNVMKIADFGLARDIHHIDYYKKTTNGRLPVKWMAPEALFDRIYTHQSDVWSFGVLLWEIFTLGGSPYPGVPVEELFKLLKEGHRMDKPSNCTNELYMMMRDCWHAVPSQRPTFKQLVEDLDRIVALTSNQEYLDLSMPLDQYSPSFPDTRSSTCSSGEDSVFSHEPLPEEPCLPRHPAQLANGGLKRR
Sequence of FGFR2 (h) (P21802 22-821): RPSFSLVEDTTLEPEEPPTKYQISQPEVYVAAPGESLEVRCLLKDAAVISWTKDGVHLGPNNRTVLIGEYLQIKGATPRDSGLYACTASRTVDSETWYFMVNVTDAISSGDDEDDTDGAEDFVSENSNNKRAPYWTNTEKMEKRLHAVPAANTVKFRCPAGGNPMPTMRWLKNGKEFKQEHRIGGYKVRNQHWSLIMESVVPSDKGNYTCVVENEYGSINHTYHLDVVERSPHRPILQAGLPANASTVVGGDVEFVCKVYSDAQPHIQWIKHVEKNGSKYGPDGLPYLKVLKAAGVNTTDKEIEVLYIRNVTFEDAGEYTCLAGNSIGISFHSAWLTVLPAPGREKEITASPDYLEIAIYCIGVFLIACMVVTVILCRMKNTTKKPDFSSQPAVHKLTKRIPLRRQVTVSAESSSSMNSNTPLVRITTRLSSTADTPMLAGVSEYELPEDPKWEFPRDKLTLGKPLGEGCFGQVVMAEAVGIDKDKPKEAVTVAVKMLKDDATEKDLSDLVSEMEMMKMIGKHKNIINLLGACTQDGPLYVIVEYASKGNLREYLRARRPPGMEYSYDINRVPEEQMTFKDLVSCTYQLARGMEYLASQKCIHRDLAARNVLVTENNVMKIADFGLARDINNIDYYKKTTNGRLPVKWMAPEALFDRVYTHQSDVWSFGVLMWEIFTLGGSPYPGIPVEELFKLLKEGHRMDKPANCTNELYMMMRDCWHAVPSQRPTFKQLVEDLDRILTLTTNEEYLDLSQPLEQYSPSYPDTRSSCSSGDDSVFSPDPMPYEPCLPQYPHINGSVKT

## COc1cc(OC)cc(N(CCNC(C)C)c2ccc3ncc(-c4cnn(C)c4)nc3n2)c1 [Compound 1]
[1]
  IC50: 5.01 nM
[2]; FGFR 2 pIC50, enzymatic assay
  IC50: 25.1 nM
[3]
  IC50: 5.01 nM
[4]
  IC50: 25.1 nM
[5]
  IC50: 251 nM
[6]
  BAF3-FGFR1 (MIN IL3) pIC50: 8.5
[7]
  IC50: > 10000 nM
[8]
  BAF3-FGFR3 (MIN IL3) pIC50: 8.1
[9]
  IC50: > 10000 nM
[10]
  BAF3-KDR (MIN IL3) pIC50: 5.6
[11]
  BAF3-FGFR4 pIC50: ~7.06

## COc1cc(OC)cc(N(CCCO)c2ccc3ncc(-c4cnn(C)c4)nc3n2)c1 [Compound 18]
[1]
  IC50: 2 nM
[2]; [12]
  IC50: 3.98 nM
[3]
  IC50: 1 nM
[4]
  IC50: 3.16 nM
[5]
  IC50: 50.1 nM
[6]
  BAF3-FGFR1 (MIN IL3) pIC50: 7.4
[7]; [13]
  IC50: > 10000 nM
[8]
  BAF3-FGFR3 (MIN IL3) pIC50: 7.3
[9]; [13]
  IC50: > 10000 nM
[10]
  BAF3-KDR (MIN IL3) pIC50: 5.5
[11]
  BAF3-FGFR4 pIC50: ~6.64

## COc1cc(OC)c(F)c(N(Cc2ncc[nH]2)c2ccc3ncc(-c4cnn(C)c4)nc3n2)c1F [Compound 25]
[1]
  IC50: 7.94 nM
[2]; [12]
  IC50: 14.1 nM
[3]
  IC50: 2.51 nM
[4]
  IC50: 3.55 nM
[5]
  IC50: 79.4 nM
[6]
  BAF3-FGFR1 (MIN IL3) pIC50: 8.8
[7]; [13]
  IC50: 6310 nM
[8]
  BAF3-FGFR3 (MIN IL3) pIC50: 8.5
[9]; [13]
  IC50: > 10000 nM
[10]
  BAF3-KDR (MIN IL3) pIC50: 6.7
[11]
  BAF3-FGFR4 pIC50: ~8.23

## COc1cc(OC)cc(N(CCO)c2ccc3ncc(-c4cnn(C)c4)nc3n2)c1 [Compound 21]
[1]
  IC50: 2 nM
[2]; [12]
  IC50: 3.98 nM
[3]
  IC50: 0.794 nM
[4]
  IC50: 5.01 nM
[5]
  IC50: 63.1 nM
[6]
  BAF3-FGFR1 (MIN IL3) pIC50: 7.3
[7]; [13]
  IC50: > 10000 nM
[8]
  BAF3-FGFR3 (MIN IL3) pIC50: 7.3
[9]; [13]
  IC50: > 10000 nM
[10]
  BAF3-KDR (MIN IL3) pIC50: 5.6
[11]
  BAF3-FGFR4 pIC50: 6.69

## COc1cc(/N=c2\ccc3ncc(-c4cnn(C)c4)nc3n2CCCO)cc(OC)c1 [Compound 19]
[1]
  IC50: 0.398 nM
[2]; [12]
  IC50: 1.26 nM
[3]
  IC50: 0.316 nM
[4]
  IC50: 0.398 nM
[5]
  IC50: 5.01 nM
[6]
  BAF3-FGFR1 (MIN IL3) pIC50: 8.0
[7]; [13]
  IC50: > 10000 nM
[8]
  BAF3-FGFR3 (MIN IL3) pIC50: 8.0
[9]; [13]
  IC50: > 10000 nM
[10]
  BAF3-KDR (MIN IL3) pIC50: 6.4

## COc1cc(OC)cc(N(CC(O)C(F)(F)F)c2ccc3ncc(-c4cnn(C)c4)nc3n2)c1 (centres unmarked) [Compound 8]
[1]
  IC50: 1.26 nM
[2]; [12]
  IC50: 6.31 nM
[3]
  IC50: 2 nM
[4]
  IC50: 3.16 nM
[5]
  IC50: 126 nM
[6]
  BAF3-FGFR1 (MIN IL3) pIC50: 7.6
[7]; [13]
  IC50: > 10000 nM
[8]
  BAF3-FGFR3 (MIN IL3) pIC50: 7.6
[9]; [13]
  IC50: > 10000 nM
[10]
  BAF3-KDR (MIN IL3) pIC50: 5.3
[11]
  BAF3-FGFR4 pIC50: 6.66

## COc1cc(OC)cc(N(Cc2ncccn2)c2ccc3ncc(-c4cnn(C)c4)nc3n2)c1 [Compound 12]
[1]
  IC50: 1.58 nM
[2]; [12]
  IC50: 3.98 nM
[3]
  IC50: 2.51 nM
[4]
  IC50: 12.6 nM
[5]
  IC50: 39.8 nM
[6]
  BAF3-FGFR1 (MIN IL3) pIC50: 7.3
[7]; [13]
  IC50: > 10000 nM
[8]
  BAF3-FGFR3 (MIN IL3) pIC50: 7.1
[9]; [13]
  IC50: > 10000 nM
[10]
  BAF3-KDR (MIN IL3) pIC50: 5.5
[11]
  BAF3-FGFR4 pIC50: 6.26

## COc1cc(OC)c(F)c(N(CCNC(C)C)c2ccc3ncc(-c4cnn(C)c4)nc3n2)c1 [Compound 2]
[1]
  IC50: 2 nM
[2]; [12]
  IC50: 5.01 nM
[3]
  IC50: 3.16 nM
[4]
  IC50: 7.94 nM
[5]
  IC50: 79.4 nM
[6]
  BAF3-FGFR1 (MIN IL3) pIC50: 8.3
[7]
  IC50: > 10000 nM
[8]
  BAF3-FGFR3 (MIN IL3) pIC50: 8.0
[9]
  IC50: > 10000 nM
[10]
  BAF3-KDR (MIN IL3) pIC50: 6.2
[11]
  BAF3-FGFR4 pIC50: 7.64

## COc1cc(OC)c(F)c(/N=c2\ccc3ncc(-c4cnn(C)c4)nc3n2CCNC(C)C)c1F [Compound 6]
[1]
  IC50: 1 nM
[2]; [12]
  IC50: 5.01 nM
[3]
  IC50: 3.16 nM
[4]
  IC50: 5.01 nM
[5]
  IC50: 50.1 nM
[6]
  BAF3-FGFR1 (MIN IL3) pIC50: 8.0
[7]; [13]
  IC50: > 10000 nM
[8]
  BAF3-FGFR3 (MIN IL3) pIC50: 7.6
[9]; [13]
  IC50: > 10000 nM
[10]
  BAF3-KDR (MIN IL3) pIC50: 5.7

## COc1cc(OC)c(F)c(N(Cc2ncccn2)c2ccc3ncc(-c4cnn(C)c4)nc3n2)c1F [Compound 11]
[1]
  IC50: 50.1 nM
[2]; [12]
  IC50: 50.1 nM
[3]
  IC50: 7.08 nM
[4]
  IC50: 20 nM
[5]
  IC50: 398 nM
[6]
  BAF3-FGFR1 (MIN IL3) pIC50: 7.4
[7]; [13]
  IC50: > 10000 nM
[9]; [13]
  IC50: > 10000 nM
[10]
  BAF3-KDR (MIN IL3) pIC50: 6.3
[11]
  BAF3-FGFR4 pIC50: ~7.02

From patent US9309242B2, “Substituted pyrido[2,3-b]pyrazines as FGFR kinase inhibitors” (priority 2011, dated 2016)
